Laboratory results reported in US20080207752A1, “Poly (epsilon-caprolactone-co-methylmethacrylate), method for preparing the same using super critical fluid, and method for preparing therapeutic agent for skin diseases such as acne, atopy and athlete's foot comprising the same” (priority 2007, published 2008).

Assay: Particle size measured using a particle size analyzer
Assay type: physicochemical
Settings: before supercritical processing
Experimental: At first, pretreated salicylic acid is 50-100 micron. In Examples, the size of salicylic acid particles prepared in following manners was measured using a particle size analyzer. Spherical nanoparticles of which the particle size is in the range of 50 to 300 nm can be obtained according to the presence of a poly(ε-caprolactone-co-methylmethacrylate) as a biodegradable polymer and operating conditions in the reactor.
As shown in the following Table 1, the present Examples represent the operating conditions of the reactor in the step of formation of a spherical structure. The temperature and the pressure of the reactor must be each above 304.2 K and 73.8 bar. The operating parameters in the reactor are the temperature and the pressure in reactor, the amount of carbon dioxide as a supercritical fluid, and the amount of the mixed solution prepared in the preparation step. In Example 1, the mixed solution contains salicylic acid of 0.0016% by weight alone without a biodegradable polymer. In Example 2 to 8, the solution contains both of salicylic acid of 0.0016% by weight and the poly(ε-caprolactone-co-methylmethacrylate) of 0.0014% by weight as a biodegradable polymer. […] In Examples 1 and 3, the change was measured at 313K and 323K by adjusting the reactor temperature. […]

## O=C(O)c1ccccc1O [salicylic acid]
  particle size of pretreated salicylic acid: 50-100 micron
